These are literature values, as cited in patent EP0349514A1, “Prolonged-release pharmaceutical composition containing erythromycine, its preparation and its use” (priority 1988, dated 1990).

Structures are written as SMILES.

The conditions of this data set: plasma.

Consider `CC[C@H]1OC(=O)[C@H](C)[C@@H](O[C@H]2C[C@@](C)(OC)[C@@H](O)[C@H](C)O2)[C@H](C)[C@@H](O[C@@H]2O[C@H](C)C[C@H](N(C)C)[C@H]2O)[C@](C)(O)C[C@@H](C)C(=O)[C@H](C)[C@@H](O)[C@]1(C)O` [érythromycine], for which the “temps de demi-vie plasmatique t 1/2” value is 1,6 h.
